Molecular target: HIV protease (Human immunodeficiency virus type 1 group M subtype B, UniProt P04585)
Test: Assay for inhibition of microbial expressed viral protease (peptide substrate cleavage, HPLC readout)
Format: biochemical
Settings: protease expressed in Eschericia coli; peptide substrate Val-Ser-Gln-Asn-(betanapthyl)Ala-Pro-Ile-Val 0.5 mg/mL; 50 mM Na acetate, pH 5.5, 30°C, 1 hour; read-out: IC₅₀
Description: Assay for Inhibition of Microbial Expressed Viral Protease
Inhibition studies of the reaction of the protease expressed in Eschericia coli with a peptide substrate [Val-Ser-Gln-Asn-(betanapthyl)Ala-Pro-Ile-Val, 0.5 mg/mL at the time the reaction is initiated] were in 50 mM Na acetate, pH 5.5, at 30°C for 1 hour. Various concentrations of inhibitor in 1.0 ul DMAO were added to 25 ul of the peptide solution in water. The reaction is initiated by the addition of 15 ul of 0.33 nM protease (0.11 ng) in a solution of 0.133 M Na acetate pH 5.5 and 0.26% bovine serum albumin. The reaction was quenched with 160 ul of 5% phosphoric acid. Products of the reaction were separated by HPLC (VYDAC wide pore 5 cm C-18 reverse phase, acetonitrile gradient, 0.1% phosphoric acid). The extent of inhibition of the reaction was determined from the peak heights of the products.

Question: `O=C(N[C@H]1c2ccccc2C[C@H]1O)[C@H](Cc1ccccc1)CC(O)C[C@@H](Cc1ccccc1)C(=O)N[C@H]1c2ccccc2C[C@H]1O` [Example 1, N,N-bis-(2(R)-hydroxy-1(S)-indanyl)-2, 6(R,R)diphenylmethyl-4-hydroxy-1,7-heptanediamide] was tested. Which IC50 did it give?
Answer: ~0.7 nM
